Measured values as given in patent publication US9102621B2, “Acyl sulfonamide compounds” (Pfizer Limited, priority 2010, dated 2015).
pIC50: −log10 of the molar value. Counter-ions that a name gives are not always drawn.

Target: T1, Nav1.7 (or SCN9A) channel (Homo sapiens, UniProt Q15858)
T1 construct: expressed in transfected cells
Experiment: Nav1.7 (hSCN9A) channel block, PatchXpress whole-cell electrophysiology
Assay type: cell-based
Conditions: PatchXpress platform; HEK cells stably transfected with hSCN9A; estimated IC-50 calculated from single point % inhibition at V1/2; read-out: Nav1.7 EIC50
Procedure: The ability of the compounds of formula (I) to block the Nav1.7 (or SCN9A) channel were measured using the assay described below.
Human Embryonic Kidney (HEK) cells were transfected with an hSCN9A construct using lipofectamine reagent (Invitrogen), using standard techniques. Cells stably expressing the hSCN9A constructs were identified by their resistance to G-418 (400 μg/ml). Clones were screened for expression using the whole-cell voltage-clamp technique.
HEK cells stably transfected with hSCN9A were maintained in DMEM medium supplemented with 10% heat-inactivated fetal bovine serum and 400 μg/ml G-418 in an incubator at 37° C. with a humidified atmosphere of 10% CO2. For HTS, cells were harvested from flasks by trypsinization and replated in an appropriate multi-well plate (typically 96 or 384 wells/plate) such that confluence would be achieved within 24 hours of plating. For electrophysiological studies, cells were removed from the culture flask by brief trypsinization and re-plated at low density onto glass cover slips. Cells were typically used for electrophysiological experiments within 24 to 72 hours after plating.
Cover slips containing HEK cells expressing hSCN9A were placed in a bath on the stage of an inverted microscope and perfused (approximately 1 ml/minutes) with extracellular solution of the following composition: 138 mM NaCl, 2 mM CaCl2, 5.4 mM KCl, 1 mM MgCl2, 10 mM glucose, and 10 mM HEPES, pH 7.4, with NaOH. […] The osmolarity of the extracellular and intracellular solutions was 300 mOsm/kg and 295 mOsm/kg, respectively. All recordings were made at room temperature (22-24° C.) using AXOPATCH 200B amplifiers and PCLAMP software (Axon Instruments, Burlingame, Calif.).
hSCN9A currents in HEK cells were measured using the whole-cell configuration of the patch-clamp technique (Hamill et al., 1981). Uncompensated series resistance was typically 2 to 5 mega ohms and >85% series resistance compensation was routinely achieved. As a result, voltage errors were negligible and no correction was applied. Current records were acquired at 20 to 50 KHz and filtered at 5 to 10 KHz.
HEK cells stably transfected with hSCN9A were viewed under Hoffman contrast optics and placed in front of an array of flow pipes emitting either control or compound-containing extracellular solutions. All compounds were dissolved in dimethyl sulfoxide to make 10 mM stock solutions, which were then diluted into extracellular solution to attain the final concentrations desired. […] The voltage-dependence of inactivation was determined by applying a series of depolarizing prepulses (8 sec long in 10 mV increments) from a negative holding potential. The voltage was then immediately stepped to 0 mV to assess the magnitude of the sodium current. Currents elicited at 0 mV were plotted as a function of prepulse potential to allow estimation of the voltage at which 50% of the channels were inactivated (midpoint of inactivation or V1/2). Compounds were tested for their ability to inhibit hSCN9A sodium channels by activating the channel with a 20 msec voltage step to 0 mV following an 8 second conditioning prepulse to the empirically determined V1/2. Compound effect (% inhibition) was determined by difference in current amplitude before and after application of test compounds. […] Inhibition values <20% and >80% were excluded from the calculation.
Electrophysiological assays were conducted with PatchXpress 7000 hardware and associated software (Molecular Devices Corp). All assay buffers and solutions were identical to those used in conventional whole-cell voltage clamp experiments described above. hSCN9A cells were grown as above to 50%-80% confluency and harvested by trypsinization. Trypsinized cells were washed and resuspended in extracellular buffer at a concentration of 1×10^6 cells/ml. The onboard liquid handling facility of the PatchXpress was used for dispensing cells and application of test compounds. […]

T1 sequence (Q15858 whole entry): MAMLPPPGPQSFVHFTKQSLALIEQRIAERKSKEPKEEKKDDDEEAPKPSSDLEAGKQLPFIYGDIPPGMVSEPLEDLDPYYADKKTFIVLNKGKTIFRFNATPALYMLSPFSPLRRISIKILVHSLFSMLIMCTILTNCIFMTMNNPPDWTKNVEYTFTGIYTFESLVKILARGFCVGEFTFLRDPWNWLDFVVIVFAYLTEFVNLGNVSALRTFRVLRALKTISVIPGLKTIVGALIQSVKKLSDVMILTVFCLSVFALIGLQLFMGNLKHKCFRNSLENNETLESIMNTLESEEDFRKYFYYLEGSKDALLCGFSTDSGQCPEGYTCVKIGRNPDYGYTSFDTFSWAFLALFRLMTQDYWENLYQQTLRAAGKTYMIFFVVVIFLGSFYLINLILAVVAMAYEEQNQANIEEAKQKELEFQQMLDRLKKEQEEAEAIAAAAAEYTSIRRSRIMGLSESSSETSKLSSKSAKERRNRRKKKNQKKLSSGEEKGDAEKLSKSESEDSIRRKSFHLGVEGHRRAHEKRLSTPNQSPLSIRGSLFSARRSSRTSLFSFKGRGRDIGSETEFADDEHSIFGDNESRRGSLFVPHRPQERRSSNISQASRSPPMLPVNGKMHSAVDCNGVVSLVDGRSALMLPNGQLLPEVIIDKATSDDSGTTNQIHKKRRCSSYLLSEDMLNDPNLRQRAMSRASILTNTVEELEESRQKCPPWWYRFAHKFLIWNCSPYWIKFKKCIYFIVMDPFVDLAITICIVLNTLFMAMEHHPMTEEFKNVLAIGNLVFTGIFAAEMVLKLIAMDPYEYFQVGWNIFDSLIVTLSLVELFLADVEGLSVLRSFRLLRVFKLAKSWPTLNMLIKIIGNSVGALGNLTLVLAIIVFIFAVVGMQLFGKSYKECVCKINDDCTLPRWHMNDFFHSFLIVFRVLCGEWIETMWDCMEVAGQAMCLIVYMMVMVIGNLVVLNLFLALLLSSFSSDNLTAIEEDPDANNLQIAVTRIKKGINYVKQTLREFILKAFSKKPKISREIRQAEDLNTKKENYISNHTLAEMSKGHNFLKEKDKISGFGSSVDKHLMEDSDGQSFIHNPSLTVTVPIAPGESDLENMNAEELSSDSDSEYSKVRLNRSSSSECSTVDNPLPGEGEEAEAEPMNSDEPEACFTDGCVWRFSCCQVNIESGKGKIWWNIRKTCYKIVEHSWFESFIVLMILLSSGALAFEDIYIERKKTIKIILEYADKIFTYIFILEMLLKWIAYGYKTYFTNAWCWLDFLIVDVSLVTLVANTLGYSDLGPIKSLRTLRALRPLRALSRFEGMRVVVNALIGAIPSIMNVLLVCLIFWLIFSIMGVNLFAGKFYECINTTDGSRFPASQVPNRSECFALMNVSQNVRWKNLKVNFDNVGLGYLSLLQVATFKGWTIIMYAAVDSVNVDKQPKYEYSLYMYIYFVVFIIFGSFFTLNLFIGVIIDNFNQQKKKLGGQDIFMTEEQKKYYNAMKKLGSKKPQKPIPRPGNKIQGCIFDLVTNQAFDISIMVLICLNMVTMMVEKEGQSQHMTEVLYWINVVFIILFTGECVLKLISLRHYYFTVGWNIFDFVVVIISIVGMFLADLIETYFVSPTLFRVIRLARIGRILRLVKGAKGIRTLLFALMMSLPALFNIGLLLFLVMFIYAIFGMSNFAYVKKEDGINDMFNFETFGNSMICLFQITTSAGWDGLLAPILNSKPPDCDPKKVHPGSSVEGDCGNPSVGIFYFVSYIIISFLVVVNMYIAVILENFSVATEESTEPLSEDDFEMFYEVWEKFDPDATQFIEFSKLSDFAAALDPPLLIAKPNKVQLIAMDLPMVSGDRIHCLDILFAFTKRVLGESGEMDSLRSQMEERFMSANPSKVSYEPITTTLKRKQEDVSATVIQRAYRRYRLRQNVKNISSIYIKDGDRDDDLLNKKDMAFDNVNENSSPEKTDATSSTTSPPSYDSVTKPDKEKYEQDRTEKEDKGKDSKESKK

pIC50 | SMILES
5.18 | CS(=O)(=O)NC(=O)c1ccc(COc2ccc(Cl)cn2)cc1 [Example 63, 4-{[(5-Chloropyridin-2-yl)oxy]methyl}-N-(methylsulfonyl)benzamide]
< 6.00 | CS(=O)(=O)NC(=O)c1cc(F)c(OCc2ccc(Cl)cn2)cc1F [Example 64, 4-[(5-Chloropyridin-2-yl)methoxy]-2,5-difluoro-N-(methylsulfonyl)benzamide diethylamine salt]
